Results published in patent US11566030B2, “Substituted 2,6-dihydropyrrolo[3,4-c]pyrazoles as pyruvate kinase activators” (priority 2021, dated 2023).
Read-outs that look alike come from different tables or passages of the source.

Biological target: T1, Human pyruvate kinase R (PKR) (Homo sapiens, UniProt P30613)
T1 construct: Human pyruvate kinase R (PKR), residues 14-574; 6xHis-8xArg-SUMO (N, cleaved yes); host or cells: E. coli
Experiment: Biochemical assay for activation of pyruvate kinase R (Kinase-Glo luminescence, ATP generation)
Conditions: for Emax: read-out: PKR % activation, maximal activation level achieved with each compound relative to the activation level achieved by AG-348 @ 10 μM
Description: Human pyruvate kinase R (PKR), residues 14-574, and human pyruvate kinase M2, residues 1-531, were cloned into expression plasmids and obtained from ATUM Bio (Newark, Calif.). Proteins were translated as fusions with 6×-His,8×-Arg, and SUMO at the N-terminus. A third construct of human PKR was truncated, residues 50-574, and similarly cloned for use in crystallography experiments. All proteins were cloned, expressed in E. coli, and purified using similar protocols. Cells were grown at 30° C. in Luria-Bertani broth supplemented with 0.4% glucose to OD600=0.8 and induced with 0.4 mM IPTG at 16° C. for 18 hours. Cells were harvested by centrifugation, resuspended in 50 mM potassium phosphate pH 8.0, 500 mM NaCl, 25 mM imidazole pH 8.0, and 3 mM β-mercaptoethanol. Cells were lysed using a LM20 microfluidizer from Microfluidics (Westwood, Mass.). The crude lysate was immediately supplemented with 0.2 mM phenylmethylsulfonyl fluoride (PMSF) and centrifuged at 20,000 g for 20 minutes. The soluble fraction was subsequently incubated with 2 mL Ni-NTA (GE Healthcare) per 1,000 ODs for 1 hour at 4° C. Following incubation with the Ni-NTA resin, lysate was removed by pelleting resin at 2,500 g for 3 minutes and washed 3 times with 9 bed volumes of 50 mM potassium phosphate pH 8.0, 500 mM NaCl, 25 mM imidazole, and 3 mM β-mercaptoethanol. Following the batch wash Ni-NTA resin was loaded onto a gravity column and His-tagged protein was eluted with 6 bed volumes of 10 mM Tris/HCl pH 8.0, 200 mM NaCl, 500 mM imidazole, and 3 mM β-mercaptoethanol. Eluted protein was dialyzed overnight against 10 mM Tris/HCl pH 8.0, 200 mM NaCl, and 1 mM DTT and the 6×-His-8×-Arg-SUMO-tag was cleaved using a 20:1 molar ratio of protein: 3C protease. The protein was purified by anion exchange chromatography on a HiTrapQ or MonoQ 10/100 GL column (GE Healthcare) via a linear NaCl gradient and twice by size exclusion chromatography using a Superdex S200 26/60 column (GE Healthcare) run in 10 mM Tris/HCl pH 8.0, 200 mM NaCl, 10 mM MgCl2, 1 mM DTT. Proteins were concentrated to −12 mg/mL for crystallization and flash frozen for storage.
Biochemical assay for Activation of Pyruvate Kinase R
Activation of pyruvate kinase R (PKR) and pyruvate kinase M2 (PKM2) were measured using a luminescence based measurement of ATP generation and the Kinase-Glo luminescent kinase reagent kit.

[1] = PKR AC50 (nM), 0.1 nM PKR, 0.3 mM ADP, 0.1 mM PEP, 1% DMSO

T1 sequence (P30613 14-574): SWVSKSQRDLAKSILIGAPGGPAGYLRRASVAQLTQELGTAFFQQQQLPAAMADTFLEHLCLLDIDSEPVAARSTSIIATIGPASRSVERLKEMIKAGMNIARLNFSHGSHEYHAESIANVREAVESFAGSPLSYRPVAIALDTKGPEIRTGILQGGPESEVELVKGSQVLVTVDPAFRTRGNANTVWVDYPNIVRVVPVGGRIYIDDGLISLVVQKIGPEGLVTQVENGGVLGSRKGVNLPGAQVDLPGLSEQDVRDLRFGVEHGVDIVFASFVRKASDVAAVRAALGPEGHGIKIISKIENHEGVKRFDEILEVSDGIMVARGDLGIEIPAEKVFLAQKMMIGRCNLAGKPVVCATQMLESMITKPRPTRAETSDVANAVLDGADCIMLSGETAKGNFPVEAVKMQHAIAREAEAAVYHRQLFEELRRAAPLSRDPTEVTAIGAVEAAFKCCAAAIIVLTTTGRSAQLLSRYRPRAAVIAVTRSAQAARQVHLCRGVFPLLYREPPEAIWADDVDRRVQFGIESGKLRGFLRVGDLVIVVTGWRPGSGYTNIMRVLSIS

O=C([C@H](O)c1ccccc1F)N1Cc2cn(S(=O)(=O)c3ccn(CC(F)F)n3)nc2C1 [Compound 51, (2R)-1-{2-[1-(2,2-difluoroethyl)pyrazol-3-ylsulfonyl]-4H,6H-pyrrolo[3,4-c]pyrazol-5-yl}-2-(2-fluorophenyl)-2-hydroxyethanone]
AC50: 140 nM | Emax: 112%

O=C(N1Cc2cn(S(=O)(=O)c3cnn(CC(F)(F)F)c3)nc2C1)C1(c2ncccc2Cl)COC1 [Compound 52, (3-(3-chloropyridin-2-yl)oxetan-3-yl)(2-((1-(2,2,2-trifluoroethyl)-1H-pyrazol-4-yl)sulfonyl)-2,6-dihydropyrrolo[3,4-c]pyrazol-5(4H)-yl)methanone]
AC50 [1]: 24 nM | Emax: 93%

O=C([C@H](CO)c1cccc(F)c1F)N1Cc2cn(S(=O)(=O)c3cnn(CC(F)F)c3)nc2C1 [Compound 53, (2S)-1-{2-[1-(2,2-difluoroethyl)pyrazol-4-ylsulfonyl]-4H,6H-pyrrolo[3,4-c]pyrazol-5-yl}-2-(2,3-difluorophenyl)-3-hydroxypropan-1-one]
AC50 [1]: 5.2 nM | Emax: 100%

O=C([C@@H](CO)c1cccc(F)c1F)N1Cc2cn(S(=O)(=O)c3cnn(CC(F)F)c3)nc2C1 [Compound 54, (2R)-1-{2-[1-(2,2-difluoroethyl)pyrazol-4-ylsulfonyl]-4H,6H-pyrrolo[3,4-c]pyrazol-5-yl}-2-(2,3-difluorophenyl)-3-hydroxypropan-1-one]
AC50 [1]: 260 nM | Emax: 108%

O=C([C@H](CO)c1cccc(F)c1Cl)N1Cc2cn(S(=O)(=O)c3cnn(CC(F)F)c3)nc2C1 [Compound 55, (2S)-2-(2-chloro-3-fluorophenyl)-1-{2-[1-(2,2-difluoroethyl)pyrazol-4-ylsulfonyl]-4H,6H-pyrrolo[3,4-c]pyrazol-5-yl}-3-hydroxypropan-1-one]
AC50: 5.1 nM | Emax: 98%

O=C([C@@H](CO)c1cccc(F)c1Cl)N1Cc2cn(S(=O)(=O)c3cnn(CC(F)F)c3)nc2C1 [Compound 56, (2R)-2-(2-chloro-3-fluorophenyl)-1-{2-[1-(2,2-difluoroethyl)pyrazol-4-ylsulfonyl]-4H,6H-pyrrolo[3,4-c]pyrazol-5-yl}-3-hydroxypropan-1-one]
AC50: 170 nM | Emax: 122%

CC(C)n1cc(S(=O)(=O)n2cc3c(n2)CN(C(=O)[C@H](CO)c2ccccc2F)C3)cn1 [Compound 57, (2S)-2-(2-fluorophenyl)-3-hydroxy-1-[2-(1-isopropylpyrazol-4-ylsulfonyl)-4H,6H-pyrrolo[3,4-c]pyrazol-5-yl]propan-1-one]
AC50 [1]: 6.7 nM | Emax: 50%

O=C([C@H](CO)c1ccccc1F)N1Cc2cn(S(=O)(=O)c3cnn(CCC(F)(F)F)c3)nc2C1 [Compound 58, (S)-2-(2-fluorophenyl)-3-hydroxy-1-(2-((1-(3,3,3-trifluoropropyl)-1H-pyrazol-4-yl)sulfonyl)-2,6-dihydropyrrolo[3,4-c]pyrazol-5(4H)-yl)propan-1-one]
AC50: 30 nM | Emax: 59%

O=C([C@@H](CO)c1ccccc1F)N1Cc2cn(S(=O)(=O)c3cnn(CCC(F)(F)F)c3)nc2C1 [Compound 59, (R)-2-(2-fluorophenyl)-3-hydroxy-1-(2-((1-(3,3,3-trifluoropropyl)-1H-pyrazol-4-yl)sulfonyl)-2,6-dihydropyrrolo[3,4-c]pyrazol-5(4H)-yl)propan-1-one]
AC50: 1600 nM | Emax: 55%

COCCn1cc(S(=O)(=O)n2cc3c(n2)CN(C(=O)[C@H](CO)c2ccccc2F)C3)cn1 [Compound 60, (2S)-2-(2-fluorophenyl)-3-hydroxy-1-{2-[1-(2-methoxyethyl)pyrazol-4-ylsulfonyl]-4H,6H-pyrrolo[3,4-c]pyrazol-5-yl}propan-1-one]
AC50 [1]: 28 nM | Emax: 74%

COCCn1cc(S(=O)(=O)n2cc3c(n2)CN(C(=O)[C@@H](CO)c2ccccc2F)C3)cn1 [Compound 61, (2R)-2-(2-fluorophenyl)-3-hydroxy-1-{2-[1-(2-methoxyethyl)pyrazol-4-ylsulfonyl]-4H,6H-pyrrolo[3,4-c]pyrazol-5-yl}propan-1-one]
AC50 [1]: 3000 nM | Emax: 49%

O=C([C@H](CO)c1ccccc1F)N1Cc2cn(S(=O)(=O)c3ccn(CC(F)(F)F)n3)nc2C1 [Compound 62, (2S)-2-(2-fluorophenyl)-3-hydroxy-1-{2-[1-(2,2,2-trifluoroethyl)pyrazol-3-ylsulfonyl]-4H,6H-pyrrolo[3,4-c]pyrazol-5-yl}propan-1-one]
AC50 [1]: 70 nM | Emax: 60%

O=C([C@H](CO)c1ccccc1Cl)N1Cc2cn(S(=O)(=O)c3ccn(CC(F)(F)F)n3)nc2C1 [Compound 63, (2S)-2-(2-chlorophenyl)-3-hydroxy-1-[2-[1-(2,2,2-trifluoroethyl)pyrazol-3-ylsulfonyl]-4H,6H-pyrrolo[3,4-c]pyrazol-5-yl]propan-1-one]
AC50 [1]: 50 nM | Emax: 85%

O=C(N1Cc2cn(S(=O)(=O)c3ccn(CC(F)F)n3)nc2C1)C1(c2ncccc2Cl)COC1 [Compound 64, 3-chloro-2-(3-{2-[1-(2,2-difluoroethyl)pyrazol-3-ylsulfonyl]-4H,6H-pyrrolo[3,4-c]pyrazole-5-carbonyl}oxetan-3-yl)pyridine]
AC50 [1]: 12 nM | Emax: 100%

O=C(N1Cc2cn(S(=O)(=O)c3ccn(CC(F)(F)F)n3)nc2C1)C1(c2ncccc2Cl)COC1 [Compound 65, (3-(3-chloropyridin-2-yl)oxetan-3-yl)(2-((1-(2,2,2-trifluoroethyl)-1H-pyrazol-3-yl)sulfonyl)-2,6-dihydropyrrolo[3,4-c]pyrazol-5(4H)-yl)methanone]
AC50 [1]: 110 nM | Emax: 42%

Cc1cn(CC(F)(F)F)nc1S(=O)(=O)n1cc2c(n1)CN(C(=O)[C@H](CO)c1ccccc1)C2 [Compound 66, (2S)-3-hydroxy-1-{2-[4-methyl-1-(2,2,2-trifluoroethyl)pyrazol-3-ylsulfonyl]-4H,6H-pyrrolo[3,4-c]pyrazol-5-yl}-2-phenylpropan-1-one]
AC50 [1]: 120 nM | Emax: 0%

Cc1cn(CC(F)(F)F)nc1S(=O)(=O)n1cc2c(n1)CN(C(=O)[C@@H](CO)c1ccccc1)C2 [Compound 67, (2R)-3-hydroxy-1-{2-[4-methyl-1-(2,2,2-trifluoroethyl)pyrazol-3-ylsulfonyl]-4H,6H-pyrrolo[3,4-c]pyrazol-5-yl}-2-phenylpropan-1-one]
Emax: 0%

Cc1cn(CC(F)(F)F)nc1S(=O)(=O)n1cc2c(n1)CN(C(=O)[C@H](CO)c1ccccc1F)C2 [Compound 68, (2S)-2-(2-fluorophenyl)-3-hydroxy-1-{2-[4-methyl-1-(2,2,2-trifluoroethyl)pyrazol-3-ylsulfonyl]-4H,6H-pyrrolo[3,4-c]pyrazol-5-yl}propan-1-one]
AC50 [1]: 2100 nM | Emax: 9%

Cc1cn(CC(F)(F)F)nc1S(=O)(=O)n1cc2c(n1)CN(C(=O)[C@@H](CO)c1ccccc1F)C2 [Compound 69, (2R)-2-(2-fluorophenyl)-3-hydroxy-1-{2-[4-methyl-1-(2,2,2-trifluoroethyl)pyrazol-3-ylsulfonyl]-4H,6H-pyrrolo[3,4-c]pyrazol-5-yl}propan-1-one]
AC50 [1]: 15 nM | Emax: 4%

Cc1cn(CC(F)(F)F)nc1S(=O)(=O)n1cc2c(n1)CN(C(=O)[C@H](CO)c1ccccc1Cl)C2 [Compound 70, (2S)-2-(2-chlorophenyl)-3-hydroxy-1-{2-[4-methyl-1-(2,2,2-trifluoroethyl)pyrazol-3-ylsulfonyl]-4H,6H-pyrrolo[3,4-c]pyrazol-5-yl}propan-1-one]
AC50 [1]: 82 nM | Emax: 36%

Cc1cn(CC(F)(F)F)nc1S(=O)(=O)n1cc2c(n1)CN(C(=O)[C@@H](CO)c1ccccc1Cl)C2 [Compound 71, (2R)-2-(2-chlorophenyl)-3-hydroxy-1-{2-[4-methyl-1-(2,2,2-trifluoroethyl)pyrazol-3-ylsulfonyl]-4H,6H-pyrrolo[3,4-c]pyrazol-5-yl}propan-1-one]
AC50 [1]: 3900 nM | Emax: 30%

O=C([C@H](CO)c1ccccc1)N1Cc2cn(S(=O)(=O)c3ccn(CC(F)F)n3)nc2C1 [Compound 72, (2S)-1-{2-[1-(2,2-difluoroethyl)pyrazol-3-ylsulfonyl]-4H,6H-pyrrolo[3,4-c]pyrazol-5-yl}-3-hydroxy-2-phenylpropan-1-one]
AC50: 9.6 nM | Emax: 98%
